We go through three compounds from patent US10654852B2, “Antibiotics and methods of using same” (THE BROAD INSTITUTE, INC., priority 2016, dated 2020).

SMILES strings stand for the structures. Converted amounts (≈) assume the structure as drawn. Read-outs that look alike come from different tables or passages of the source.

Format in all cases: cell-based
The test system of assay [1] is Escherichia coli NCTC-13476. In words: MIC (50% NHS). The following applies: NCTC13476; Escherichia coli NCTC-13476, 50% NHS.
Assay [2] concerns Klebsiella pneumonia ATCC-700603. In words: MIC (50% NHS). Conditions: Klebsiella pneumoniae, ATCC700603; Klebsiella pneumonia ATCC-700603, 50% NHS.
Assay [3] has as its system Staphylococcus aureus ATCC-29213. Nature of the assay: MIC (50% NHS). Conditions: ATCC29213; Staphylococcus aureus ATCC-29213, 50% NHS.
The target of assay [4] is T1, hERG Potassium Ion Channel (Homo sapiens, UniProt Q12809).
T1 construct: expressed in transfected cells
In words: hERG channel block, automated planar clamp (QPatch), CHO cell line. The following applies: hERG channel in stable CHO cell line. How it is done: The activity profiles of compounds 17, 23, and 24 were assessed by various in vitro measurements. The minimum inhibitory concentration (MIC), MIC in the presence of normal human serum (NHS), microsome CLint, the % of free compounds following a plasma protein biding (PPB) assay, and the concentration of drug where the human-ether-à-go-go-related gene (hERG gene) channel block is halved (IC50(hERG)) were measured using standard in vitro protocols for compounds 17, 23, and 24. Unless otherwise indicated, measurements (e.g., microsomal clearance) were performed using a standard microsomal stability assay using LC/MS/MS techniques.
Blockade of the cardiac ion channel coded by the hERG gene can lead to cardiac arrhythmia. […] To determine the viability of inventive compounds as pharmacological agents that would not affect the hERG channel blockade, a standard automated planar clamp method was employed to determine the IC50 for various test compounds on their inhibition of the channel. An electrophysiological assay was prepared to measure the electric current passing through the hERG channel expressed in a stable CHO cell line by applying the planar clamp method. This assay was performed using the automated QPatch platform (Sophion, Denmark) which allows fast and accurate electrophysiological characterization of the hERG ion channel and the determination of IC50 values for the test compounds.
Background: Block of hERG is tested as a sign of cardiac risk.

Assay [5] deals with Escherichia coli ATCC-25922. Nature of the assay: MIC in the presence of normal human serum (50% NHS). Conditions: ATCC25922. An excerpt:
As used herein, the term “MIC” refers to minimum inhibitory concentrations. Minimum inhibitory concentrations may be determined by broth microdilution according to the Clinical and Laboratory Standards Institute guidelines (see, e.g., […]-A8. Methods for dilution antimicrobial susceptibility tests for bacteria that grow aerobically: approved standard, 8th Ed.; […] One example for measuring minimum inhibitory concentrations may be found in Reck et al., 2012, J. Med. Chem. 55:6916-6933, the disclosure of which is incorporated by reference. Inoculants may be incubated on blood agar plates for 18 to 24 hours. Incubation may occur at a temperature from about 35° C. to about 37° C. […] In serum supplemented experiments, the testing medium (e.g., DMSO solution) and human serum may be mixed. The ratio of testing medium to human serum may be 1:1 (vol:vol). Plates may be read by spectrophotometry at 620 nm. Unless indicated otherwise, all inhibitory concentrations recited in the specification relate to MICs. The MIC tests were based on broth microdilution method in CLSI-M7. […] Solutions of varying concentrations of DMSO were prepared in wells of a v-bottom 96-well plate (Axygen-WIPP02280). A multi-pipette was used to perform serial dilutions as necessary. From well to well, the drug concentrations were 6.4, 3.2, 1.6, 0.8, 0.4, 0.2, 0.1, 0.05, 0.025, 0.0125, 0.00625 and 0 mg/ml in DMSO. For extremely potent antibiotic, the starting concentrations were adjusted accordingly. This was the drug mother plate. Daughter plates were prepared by placing 98 μl of a testing medium into each well of a u-bottom 96-well plate (Costar 3788). An aliquot of each 2 μl solution from each well of the mother plate was then transferred into the corresponding wells of the daughter plate using a multi-pipette work station (CyBi®-SELMA). Testing media were selected based on CLSI-M7, M11 and […]. Cation adjusted Mueller Hinton Broth (CA-MHB-212322) was the testing medium for majority of bacterial species. Brucella medium (BD-211088) supplemented with 5% LHB, 0.5% hemin and 0.1% vitamin K1 (Sigma-95271) was the testing medium for anaerobic bacteria. One day prior to the day of MIC test, bacterial strains were streaked out from -80° C. glycerol stock onto Trypticase Soy Agar (TSA) plates (Brucella blood agar for anaerobic bacteria) and incubated at 37° C. for 20 hours (in anaerobic condition for anaerobic bacteria, e.g., 80% N2, 10% H2 and 10% CO2). Single colonies of bacteria were picked by using an inoculation loop (Greiner-731175) and suspended into 5 ml sterile saline. The turbidity of the suspension was adjusted to 0.10 (Siemens MicroS can turbidity meter), which implies a concentration of colony forming units (“CFU”) of approximately 1.0×10^8 CFU/ml. The bacterial suspension was diluted 100× in testing media. For MIC experiments with NHS, testing medium and human serum (Equitech Bio Inc. BRH-949908) were mixed in the ratio of 1:1. This was used for inoculation of the daughter plates. An aliquot of 100 μl of the bacterial suspension was inoculated into each well of the daughter plates using a multi-pipette. […] The plates were incubated in ambient atmosphere and at 37° C. in an incubator for 20 hours (for anaerobic bacteria in an anaerobic condition as described above for 48 hours). The MIC values were determined and based on the standards of CLSI methods M7-A7, broth microdilution method. […] Test compounds were compared to control antibiotics Penicillin G (Sigma-13752) and levofloxacin (Sigma-28266). […] Additionally, the MIC's of another gyrase inhibitor (“GSK”) with a structure different from the inventive compounds and the antibacterial levofloxin was measured. MIC are given in μg/mL.

Assay [6] relates to Klebsiella pneumonia ATCC-43816. Nature of the assay: MIC (50% NHS). Conditions: Klebsiella pneumoniae, ATCC43816; Klebsiella pneumonia ATCC-43816, 50% NHS.
Assay [7] concerns Enterococcus faecium ATCC-700221. In words: MIC (50% NHS). The following applies: ATCC700221; Enterococcus faecium ATCC-700221, 50% NHS.
The mark [8] stands for this setting: Escherichia coli ATC-25922, 50% normal human serum, Table 5, read-out: MIC (50% NHS).
[9] abbreviates: Escherichia coli ATCC-25922, 50% NHS, Table 6, read-out: MIC.

T1 sequence (Q12809 whole entry): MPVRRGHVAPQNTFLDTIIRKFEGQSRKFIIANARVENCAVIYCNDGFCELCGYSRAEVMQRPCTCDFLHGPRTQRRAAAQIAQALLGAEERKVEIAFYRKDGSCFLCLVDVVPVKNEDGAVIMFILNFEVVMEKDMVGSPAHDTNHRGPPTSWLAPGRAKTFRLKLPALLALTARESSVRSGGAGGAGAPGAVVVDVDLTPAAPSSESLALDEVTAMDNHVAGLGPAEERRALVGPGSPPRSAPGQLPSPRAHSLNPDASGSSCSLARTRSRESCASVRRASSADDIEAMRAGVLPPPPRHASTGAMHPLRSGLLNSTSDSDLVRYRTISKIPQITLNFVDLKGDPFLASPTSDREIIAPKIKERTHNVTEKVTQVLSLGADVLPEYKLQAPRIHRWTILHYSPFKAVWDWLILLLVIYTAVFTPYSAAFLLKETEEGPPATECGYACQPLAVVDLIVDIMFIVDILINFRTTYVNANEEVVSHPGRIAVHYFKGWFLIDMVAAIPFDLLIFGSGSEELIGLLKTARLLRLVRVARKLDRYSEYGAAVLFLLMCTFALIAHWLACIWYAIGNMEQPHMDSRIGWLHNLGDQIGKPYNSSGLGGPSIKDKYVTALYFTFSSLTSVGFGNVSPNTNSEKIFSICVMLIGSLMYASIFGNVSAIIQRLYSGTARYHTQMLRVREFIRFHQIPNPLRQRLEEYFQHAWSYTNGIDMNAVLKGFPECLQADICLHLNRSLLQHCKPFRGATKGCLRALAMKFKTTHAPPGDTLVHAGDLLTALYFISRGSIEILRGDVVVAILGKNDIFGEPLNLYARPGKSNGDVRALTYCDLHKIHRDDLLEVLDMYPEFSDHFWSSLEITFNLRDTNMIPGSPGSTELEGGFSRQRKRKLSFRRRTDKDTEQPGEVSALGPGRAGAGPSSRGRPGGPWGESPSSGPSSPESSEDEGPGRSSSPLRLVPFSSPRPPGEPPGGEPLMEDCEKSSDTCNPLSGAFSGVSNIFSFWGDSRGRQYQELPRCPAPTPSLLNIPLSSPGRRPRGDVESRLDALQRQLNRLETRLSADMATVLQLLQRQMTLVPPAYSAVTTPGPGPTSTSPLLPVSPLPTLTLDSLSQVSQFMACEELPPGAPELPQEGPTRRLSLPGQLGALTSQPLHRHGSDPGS

As to `CN1CC2CN(C(=O)Nc3cc(F)cc(F)c3)CC(C1)C2(O)c1ccc(-c2ccc(CN)cc2C#N)cc1` [Compound 23, (1R,5S,9r)-9-(4′-(aminomethyl)-2′-cyano-[1,1′-biphenyl]-4-yl)-N-(3,5-difluorophenyl)-9-hydroxy-7-methyl-3,7-diazabicyclo[3.3.1]nonane-3-carboxamide], the MIC in assay [1] is 2 µg/mL (≈ 3.86 µM); in assay [2], 8 µg/mL (≈ 15.5 µM); in assay [3] it was 0.13 µg/mL (≈ 0.251 µM); in assay [5] (setting [8]), 0.5 µg/mL; in assay [5] (setting [9]), 0.5 µg/mL; in assay [6] it was 2 µg/mL (≈ 3.86 µM). The compound also came in with an MIC in assay [7] of 1 µg/mL (≈ 1.93 µM). The same compound displayed an IC50 in assay [4] above 30 µM.

Take `CNCc1ccc(-c2ccc(C3(O)C4CN(C)CC3CN(C(=O)Nc3cc(F)cc(F)c3)C4)nc2)c(C#N)c1` [Compound 17, (1R,5S,9r)-9-(5-(2-cyano-4-((methylamino)methyl)phenyl)pyridin-2-yl)-N-(3,5-difluorophenyl)-9-hydroxy-7-methyl-3,7-diazabicyclo[3.3.1]nonane-3-carboxamide]: the minimal inhibitory concentration (MIC) in assay [1] was 1.78 µg/mL (≈ 3.34 µM); in assay [2] it was 7.12 µg/mL (≈ 13.4 µM); in assay [3], at most 0.11 µg/mL; in assay [5] (setting [8]) it was 0.5 µg/mL; in assay [5] (setting [9]), 0.22 µg/mL; in assay [6], 1.78 µg/mL (≈ 3.34 µM). In addition, 0.89 µg/mL (≈ 1.67 µM) was the least that counted as inhibitory in assay [7] (MIC). For the same compound, the IC50 in assay [4] is above 30 µM.

As to `CN1CC2CN(C(=O)Nc3cc(F)cc(F)c3)CC(C1)C2(O)c1ccc(-c2ccc(CN)cc2C#N)cn1` [Compound 24, (1R,5S,9r)-9-(5-(4-(aminomethyl)-2-cyanophenyl)pyridin-2-yl)-N-(3,5-difluorophenyl)-9-hydroxy-7-methyl-3,7-diazabicyclo[3.3.1]nonane-3-carboxamide], the MIC in assay [1] is 4 µg/mL (≈ 7.71 µM); in assay [2], 16 µg/mL (≈ 30.9 µM); in assay [3], 0.25 µg/mL (≈ 0.482 µM); in assay [5] (setting [8]) it was 0.25 µg/mL; in assay [5] (setting [9]) it was 1 µg/mL; in assay [6] it was 4 µg/mL (≈ 7.71 µM). Moreover, inhibition of growth in assay [7] (MIC) required 4 µg/mL (≈ 7.71 µM). The compound further returned an IC50 in assay [4] above 30 µM.

A word on the MIC: it is the least concentration at which growth counts as inhibited. Usually IC50 stands for the point on the concentration scale where inhibition reaches its midpoint. Lower therefore signals inhibition by little substance.
